Reference: the supplement of paper PMC10307832

Assays:
Experiment in all cases: relative viability (nuclei count vs DMSO), 5 days (fraction); higher = more cells survive
Venetoclax + Decitabine = compound: CC1(C)CCC(CN2CCN(c3ccc(C(=O)NS(=O)(=O)c4ccc(NCC5CCOCC5)c([N+](=O)[O-])c4)c(Oc4cnc5[nH]ccc5c4)c3)CC2)=C(c2ccc(Cl)cc2)C1 [Venetoclax] + Nc1ncn([C@H]2C[C@H](O)[C@@H](CO)O2)c(=O)n1 [Decitabine] (partner 2 µM)
In short: (§1)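 Dosing by pin tool came one day after lung cancer cell lines were seeded in 1536-well plates, using either one drug or a fixed anchor-drug dose plus five library-drug doses (not always all listed) in √10 steps. After 5 days, nuclei were counted on 4× images. Relative viability is treated-well nuclei count divided by vehicle-well nuclei count, and values are medians of duplicate plates.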

Selumetinib + Navitoclax = compound: Cn1cnc2c(F)c(Nc3ccc(Br)cc3Cl)c(C(=O)NOCCO)cc21 [Selumetinib] + CC1(C)CCC(c2ccc(Cl)cc2)=C(CN2CCN(c3ccc(C(=O)NS(=O)(=O)c4ccc(N[C@H](CCN5CCOCC5)CSc5ccccc5)c(S(=O)(=O)C(F)(F)F)c4)cc3)CC2)C1 [Navitoclax] (partner 0.5 µM)
In short: as §1

Venetoclax + Trametinib = compound: CC1(C)CCC(CN2CCN(c3ccc(C(=O)NS(=O)(=O)c4ccc(NCC5CCOCC5)c([N+](=O)[O-])c4)c(Oc4cnc5[nH]ccc5c4)c3)CC2)=C(c2ccc(Cl)cc2)C1 [Venetoclax] + CC(=O)Nc1cccc(-n2c(=O)n(C3CC3)c(=O)c3c(Nc4ccc(I)cc4F)n(C)c(=O)c(C)c32)c1 [Trametinib] (partner 0.02 µM)
In short: as §1

Venetoclax + Phenformin = compound: CC1(C)CCC(CN2CCN(c3ccc(C(=O)NS(=O)(=O)c4ccc(NCC5CCOCC5)c([N+](=O)[O-])c4)c(Oc4cnc5[nH]ccc5c4)c3)CC2)=C(c2ccc(Cl)cc2)C1 [Venetoclax] + N=C(N)NC(=N)NCCc1ccccc1 [Phenformin] (partner 250 µM)
In short: as §1

Row | Cell Line | relative viability (Venetoclax + Decitabine; first compound 0.01 µM) | relative viability (Venetoclax + Decitabine; first compound 0.03162 µM) | relative viability (Venetoclax + Decitabine; first compound 0.1 µM) | relative viability (Venetoclax + Decitabine; first compound 0.3162 µM) | relative viability (Venetoclax + Decitabine; first compound 1 µM) | relative viability (Selumetinib + Navitoclax; first compound 0.02 µM) | relative viability (Selumetinib + Navitoclax; first compound 0.06325 µM) | relative viability (Selumetinib + Navitoclax; first compound 0.2 µM) | relative viability (Selumetinib + Navitoclax; first compound 0.6325 µM) | relative viability (Venetoclax + Trametinib; first compound 0.01 µM) | relative viability (Venetoclax + Trametinib; first compound 0.03162 µM) | relative viability (Venetoclax + Trametinib; first compound 0.1 µM) | relative viability (Venetoclax + Trametinib; first compound 0.3162 µM) | relative viability (Venetoclax + Trametinib; first compound 1 µM) | relative viability (Venetoclax + Phenformin; first compound 0.01 µM) | relative viability (Venetoclax + Phenformin; first compound 0.03162 µM) | relative viability (Venetoclax + Phenformin; first compound 0.1 µM) | relative viability (Venetoclax + Phenformin; first compound 0.3162 µM) | relative viability (Venetoclax + Phenformin; first compound 1 µM)
1 | NCI-H2170 | 0.442 | 0.46 | 0.431 | 0.451 | 0.473 | 0.581 | 0.561 | 0.514 | 0.464 | 0.859 | 0.97 | 0.841 | 0.812 | 0.87 | 0.319 | 0.415 | 0.399 | 0.368 | 0.34
2 | NCI-H1437 | 0.659 | 0.52 | 0.52 | 0.542 | 0.556 | 1.07 | 0.856 | 0.75 | 0.487 | 0.5 | 0.52 | 0.529 | 0.463 | 0.435 | 0.377 | 0.348 | 0.266 | 0.34 | 0.296
3 | NCI-H3122 | 0.349 | 0.419 | 0.378 | 0.373 | 0.432 | 0.937 | 0.852 | 0.908 | 0.808 | 0.259 | 0.197 | 0.211 | 0.227 | 0.29 | 0.366 | 0.361 | 0.341 | 0.339 | 0.282
4 | NCI-H2023 | 0.218 | 0.23 | 0.23 | 0.237 | 0.234 | 0.937 | 0.924 | 0.959 | 0.783 | 0.526 | 0.552 | 0.558 | 0.485 | 0.477 | 0.434 | 0.393 | 0.435 | 0.434 | 0.378
5 | NCI-H460 | 0.442 | 0.525 | 0.493 | 0.498 | 0.447 | 1.18 | 0.916 | 0.86 | 0.578 | 0.171 | 0.229 | 0.131 | 0.153 | 0.131 | 0.424 | 0.55 | 0.478 | 0.497 | 0.461
6 | PC-3 [JPC-3] | 0.854 | 0.788 | 0.931 | 0.809 | 0.805 | 0.824 | 0.744 | 0.721 | 0.651 | 0.656 | 0.685 | 0.678 | 0.683 | 0.666 | 0.503 | 0.51 | 0.487 | 0.468 | 0.513
7 | HCC-15 | 0.519 | 0.699 | 0.611 | 0.611 | 0.543 | 0.507 | 0.397 | 0.32 | 0.199 | 0.384 | 0.457 | 0.352 | 0.403 | 0.375 | 0.451 | 0.48 | 0.455 | 0.448 | 0.406
8 | NCI-H1650 | 0.545 | 0.422 | 0.408 | 0.407 | 0.363 | 1 | 0.893 | 0.904 | 1.01 | 0.539 | 0.581 | 0.609 | 0.485 | 0.529 | 0.515 | 0.479 | 0.541 | 0.534 | 0.377
